Columns and labels:
[1] = Cytotoxicity against rat RT2 cells expressing wild type p53 after 48 hrs by MTT assay; type: functional, cell-based; conditions: RT2, 48 h
[2] = Cytotoxicity against human T98 cells expressing p53 mutant after 48 hrs by MTT assay; type: functional, cell-based; conditions: T98, 48 h
[3] = Cytotoxicity against erythrocytes assessed as hemolysis; type: cell-based; conditions: erythrocyte

SMILES	IC50 [1]	IC50 [2]	Hemolytic concentration [3]
C/C(=N\NC(=S)Nc1ccc(Cl)cc1)c1ccccn1	3.7 nM	5.9 nM	> 1 mM
C/C(=N\NC(=S)Nc1ccccc1Cl)c1ccccn1	1.4 nM	1.1 nM	> 1 mM
C/C(=N\NC(=S)Nc1cccc(Cl)c1)c1ccccn1	9 nM	1 nM	> 1 mM
C/C(=N\NC(=S)Nc1ccccc1C)c1ccccn1	14 nM	34 nM	> 1 mM
C/C(=N\NC(=S)Nc1cccc(C)c1)c1ccccn1	24 nM	50 nM	> 1 mM
C/C(=N\NC(=S)Nc1ccc(C)cc1)c1ccccn1	17 nM	37 nM	> 1 mM
C/C(=N\NC(=S)Nc1ccccc1)c1ccccn1	1.4 nM	6.8 nM	> 1 mM

Reference: ChEMBL document CHEMBL1629472, “2-Acetylpyridine thiosemicarbazones: cytotoxic activity in nanomolar doses against malignant gliomas” (Eur J Med Chem, 2010)
